Test results: patent US10131649B2, “Bicyclic compounds as pest control agents” (BAYER CROPSCIENCE AKTIENGESELLSCHAFT, priority 2014, dated 2018)
Where two headings read alike, the source gives them in different places.

Experiments:
[1] = tested on: green peach aphid (Myzus persicae); experiment: Myzus persicae spray test (Chinese cabbage leaf discs); format: in vivo; details: foliar, 144 h, read-out: efficacy in %
Method: Myzus persicae—Spray Test
Solvent: • 78 parts by weight of acetone • 1.5 parts by weight of dimethylformamide
Emulsifier: alkylaryl polyglycol ether
To produce a suitable preparation of active compound, 1 part by weight of active compound is dissolved using the specified parts by weight of solvent and made up with water containing an emulsifier concentration of 1000 ppm until the desired concentration is attained. To produce further test concentrations, the formulation is diluted with emulsifier-containing water.
Discs of Chinese cabbage leaves (Brassica pekinensis) infested by all stages of the green peach aphid (Myzus persicae) are sprayed with an active compound formulation of the desired concentration.
After 6 days, the efficacy in % is determined. 100% means that all the aphids have been killed; 0% means that no aphids have been killed.

[2] = tested on: engorged adult female cattle ticks (Boophilus microplus); experiment: Boophilus microplus injection test; format: in vivo; details: application rate 20 μg/animal, assessed after 7 days, 100% = no tick laid fertile eggs
Method: Boophilus microplus—Injection Test
Solvent: dimethyl sulphoxide
To produce a suitable preparation of active compound, 10 mg of active compound are mixed with 0.5 ml of solvent and the concentrate is diluted with solvent to the desired concentration.
1 μl of the active compound solution is injected into the abdomen of 5 engorged adult female cattle ticks (Boophilus microplus). The animals are transferred into dishes and kept in a climate-controlled room.
Efficacy is assessed after 7 days by laying of fertile eggs. Eggs which are not externally visibly fertile are stored in a climate-controlled cabinet until the larvae hatch after about 42 days. An efficacy of 100% means that none of the ticks has laid any fertile eggs; 0% means that all the eggs are fertile.

[3] = log P by HPLC on reversed-phase columns (OECD Guideline 117), [a] acidic pH 2.7, [b] neutral pH 7.8; format: physicochemical; details: reversed-phase (C18) HPLC column
Method: The log P values were determined in accordance with OECD Guideline 117 (EC Directive 92/69/EEC) by HPLC (high-performance liquid chromatography) using reversed-phase (RP) columns (C18), by the following methods:
[a] The LC-MS determination in the acidic range is carried out at pH 2.7 with 0.1% aqueous formic acid and acetonitrile (contains 0.1% formic acid) as eluents; linear gradient from 10% acetonitrile to 95% acetonitrile.
[b] LC-MS determination in the neutral range is effected at pH 7.8 with 0.001 molar aqueous ammonium hydrogencarbonate solution and acetonitrile as eluents; linear gradient from 10% acetonitrile to 95% acetonitrile.
Calibration is carried out using unbranched alkan-2-ones (having 3 to 16 carbon atoms) with known log P values (log P values determined on the basis of the retention times by linear interpolation between two successive alkanones).

For `Cc1cc(F)c(-c2ccc3nn(-c4cccnc4)cc3c2)cc1[S+]([O-])CC(F)(F)F` (stereo not shown) [Example 52, 5-[2-Fluoro-4-methyl-5-(2,2,2-trifluoroethylsulphinyl)phenyl]-2-(3-pyridyl)indazole], the pest or weed control at 500 g/ha [1] was 100%, the “efficacy (laying of fertile eggs)” value [2] was 100% and the chromatographic logP ([3]; acidic pH 2.7, read-out: logP[a]) was 2.8. For the same compound, the chromatographic logP ([3]; neutral pH 7.8, read-out: logP[b]) was 2.74.
